Assay results from patent US10253024B2, “Polycyclic indoline and indolenine compounds” (The Regents of the University of Colorado, a body corporate, priority 2015, dated 2019).
Values after ≈ are worked out from the molar mass of the structure shown. Where a name gives a salt, the structure may show the parent alone.

How the values were obtained:
[1] = test system: MRSA BAA-44; experiment: MIC of antibiotics in absence and presence of 11b (broth microdilution); format: cell-based, S. aureus; conditions: for Fold of potentiation: MIC alone versus with 10 μM 11b; for MIC: Staphylococcus aureus, antibiotic alone; for MIC (+11b): in the presence of 10 μM 11b
Description: The MICs of a variety of antibiotics in the presence and absence of 11b, respectively. In addition to methicillin, BAA-44 is also resistant to a wide range of antibiotics, such as tetracycline, erythromycin, and daptomycin. As shown in Table 2-3, compound 11b potentiates the activity of all β-lactams tested, such as oxacillin, amox/clav, cefazolin, and meropenem. Without being bound by any theory, it is believed compound 11b and other compounds of the invention are selective potentiators of β-lactams.
(§1) The minimal inhibitory concentrations (MICS) of antimicrobial compounds and 11b were determined by the broth microdilution method detailed in the Clinical and Laboratory Standards Institute (CLSI) handbook. All antimicrobial compounds were purchased from Sigma-Aldrich. The growth media used for all MIC experiments was Mueller Hinton Broth (MHB) purchased from HIMEDIA through VWR (cat: 95039-356). The inoculum was prepared by diluting a bacterial day culture (OD600 0.15-0.4) to OD600 0.002. This dilution was further diluted two fold when added to 96 well microplates (USA Scientific CytoOne 96-well TC plate, cat: CC7682-7596) for a final inoculum concentration of OD600 0.001. All plates were incubated at 37° C. with shaking for 18 hours before results were interpreted.
The MRSA strain ATCC BAA-44 was used to determine the MIC values of various antimicrobial compounds in the presence of 10 μM 11b. The experiment was conducted similarly to the CLSI MIC determination described previously; however, MHB was supplemented with 20 μM 11b prior to set up and inoculation. The final concentration of 11b after inoculation with BAA-44 was 10 μM.

[2] = test system: MRSA strain ATCC BAA-44; experiment: Checkerboard MIC study of 11b and methicillin (FICI); format: cell-based, S. aureus; conditions: 11b with methicillin, ≤0.5 indicates synergy
Procedure: Tetracyclic indolenine compounds were then evaluated in a series of bacterial whole-cell assays. Compound 11b potentiated the activity of methicillin in a multi-drug resistant MRSA strain, ATCC BAA-44. To assess the degree of synergy between 11b and methicillin, a checkerboard minimum inhibitory concentration (MIC) study was performed.

[3] = test system: BAA-44, NRS-100, NRS-384, NR-46414 and NR-46421; experiment: MIC of 11b on its own in a variety of MRSA and VRSA strains; format: cell-based, S. aureus; conditions: all strains tested
Procedure: (§2) The minimum re-sensitizing concentrations (MRCS) of 11b to re-sensitize a variety of MRSA strains to β-lactam antibiotics, amox/clav and cefazolin was also evaluated.
as §1

[4] = test system: BAA-44, NRS-100, NRS-384, NR-46414 and NR-46421; experiment: MRC of 11b for amox/clav and cefazolin in a variety of MRSA and VRSA strains; format: cell-based, S. aureus; conditions: all strains tested
Procedure: as §2
(§3) Antibiotic MIC values where S. aureus is considered susceptible were determined from the CLSI handbook. MHB was supplemented with the antimicrobial at a concentration two fold greater than the CLSI susceptible MIC value. Two-fold serial dilutions of 11b were prepared in antibiotic supplemented media in 96-well microplates. These were inoculated with MRSA diluted to OD600 0.002 and incubated at 37° C. with shaking for 18 hours before results were interpreted. The concentration of 11b in antibiotic supplemented media at which there was no observable growth was considered the minimum resensitizing concentration (MRC). For amoxicillin/clavulanic acid, the initial concentration was 8/4 μg/mL; for cefazolin, 16 μg/mL. A 50 μL portion of the antibiotic containing media was added to each well of 96-well plates, and 100 μL was added to the top row. A 1.28 μL portion of 5 mg/mL 11b was added to the top row of each plate to afford a concentration of 64 μg/mL in the top row of each plate, and 2-fold serial dilutions were performed down the columns. […] The MRC value was determined as the concentration of 11b in the presence of antibiotic at which there was no observable overnight growth.

[5] = test system: multi-drug resistant MRSA strain, ATCC BAA-44; experiment: Minimum inhibitory concentration (MIC) of the compound alone; format: cell-based, S. aureus; conditions: for MIC: Staphylococcus aureus, MRSA ATCC BAA-44, compound alone; for antibacterial activity on its own (in words): MRSA BAA-44
Procedure: (§4) ATIs 11-14 represent a wide range of clogD values and their minimum re-sensitizing concentrations (MRCS) for cefazolin (i.e., a first-generation cephalosporin) and amoxicillin/clavulanic acid (i.e., Augmentin, amox/clav) was evaluated as well as their minimum inhibitory concentrations (MICs) in a multi-drug resistant MRSA strain, ATCC BAA-44. Any compounds with promising MRC and MIC were then evaluated for potential mammalian toxicity by determining their half growth inhibitory concentrations (GI50) in human cervical adenocarcinoma (HeLa) cells.
as §1

[6] = test system: multi-drug resistant MRSA strain, ATCC BAA-44; experiment: Minimum re-sensitizing concentration (MRC) for cefazolin; format: cell-based, S. aureus; conditions: MRSA ATCC BAA-44; re-sensitizing to cefazolin
Procedure: as §4
(§5) Antibiotic MIC values where S. aureus is considered susceptible were determined from the CLSI handbook. MHB was supplemented with the antimicrobial at a concentration two fold greater than the CLSI susceptible MIC value. Two-fold serial dilutions of 11b were prepared in antibiotic supplemented media in 96-well microplates. These were inoculated with MRSA diluted to OD600 0.002 and incubated at 37° C. with shaking for 18 hours before results were interpreted. The concentration of 11b in antibiotic supplemented media at which there was no observable growth was considered the minimum resensitizing concentration (MRC). For amoxicillin/clavulanic acid, the initial concentration was 8/4 μg/mL; for cefazolin, 16 μg/mL. A 50 μL portion of the antibiotic containing media was added to each well of 96-well plates, and 100 μL was added to the top row. A 1.28 μL portion of 5 mg/mL 11b was added to the top row of each plate to afford a concentration of 64 μg/mL in the top row of each plate, and 2-fold serial dilutions were performed down the columns. Once the plates were prepared, a day culture of MRSA was diluted to OD600 0.002, and 50 μL was added to each well. The final concentration of MRSA added was OD600 0.001, the final concentration of amoxicillin/clavulanic acid was 4/2 μg/mL, the final concentration of cefazolin was 8 μg/mL, and the highest concentration of 11b tested was 32 μg/mL. Plates were incubated overnight at 37° C. with shaking. The MRC value was determined as the concentration of 11b in the presence of antibiotic at which there was no observable overnight growth.

[7] = test system: multi-drug resistant MRSA strain, ATCC BAA-44; experiment: Minimum re-sensitizing concentration (MRC) for amoxicillin/clavulanic acid; format: cell-based, S. aureus; conditions: MRSA ATCC BAA-44; re-sensitizing to amoxicillin/clavulanic acid
Procedure: as §4, §5

[8] = Saturated concentration (aqueous solubility); format: physicochemical
Procedure: (§6) The physiochemical properties of various compounds were evaluated. […] In vivo pharmacokinetic (PK) properties of 13 was evaluated.

[9] = In vivo pharmacokinetics and tolerability, single IP dose; conditions: mouse
Procedure: as §6
(§7) To test this, permeability assessments were performed using MDCK cells.

[10] = Half growth inhibitory concentration (GI50), mammalian toxicity; format: cell-based; conditions: human, HeLa cells (human cervical adenocarcinoma)
Procedure: as §4
To evaluate the cytotoxicity of 11b in mammalian cells, a cell viability assay was carried out using CellTiter-Glo luminescent cell viability assay kit (Promega). Human cervical adenocarcinoma HeLa cells were seeded on white, cell-culture treated 96-well plates (Corning: 3917) with Dulbecco's modified Eagle's medium (DMEM) supplemented with 10% fetal calf serum (FCS), 1% penicillin/streptomycin, at the densities of 20,000 cells/well. The medium volume for each well was 100 μL. Cells were incubated at 37° C. in 5% CO2/95% air for 16 hours. The medium was removed from each well and replaced with 99 μL of warmed fresh medium. To each well was then added 1.0 μL of 11b in DMSO with the final concentrations of 1.56-200 μg/mL. Each concentrate was performed in two replicates. After incubation at 37° C. for another 24 hours, the plates were equilibrated to room temperature for 30 minutes. 100 μL of CellTiter-Glo reagent (Promega) was added to each well and mixed for 2 minutes on an orbital shaker. The plate was incubated at room temperature for another 10 minutes to stabilize luminescent signal. The luminescence of each sample was recorded in an Envision Multilabel Plate Reader (Perkin Elmer).

[11] = test system: MRSA strains NRS-100 and NRS-384, VRSA strain NR-46414; experiment: MRC of 13 in further MRSA/VRSA strains; format: cell-based, S. aureus; conditions: community-acquired MRSA NRS-100, NRS-384 and VRSA NR-46414
Procedure: Compound 14 is zwitterionic under physiological conditions and has even lower clogD value. Further evaluations of 13 in a variety of MRSA strains, such as community-acquired MRSA strains NRS-100 and NRS-384, and vancomycin-resistant S. aureus (VRSA) strain NR-46414, also gave a similar results (MRCs=2 μg mL^−1).
as §3, with “row.” for “row. A 1.28 μL portion of 5 mg/mL 11b was added to the top row of each plate to afford a concentration of 64 μg/mL in the top row of each plate, and 2-fold serial dilutions were performed down the columns.”

[12] = in vitro; conditions: dog, MDCK
Procedure: as §7

MIC [1] [µg/mL]	MIC (+11b) [1] [µg/mL]	MIC [5] [µg/mL]	Structure (SMILES)	Fold of potentiation [1]	MRC Cef [6] [µg/mL]	MRC Amox/clav [7] [µg/mL]	also measured
128	4	–	Cc1nnc(SCC2=C(C(=O)O)N3C(=O)[C@@H](NC(=O)Cn4cnnn4)[C@H]3SC2)s1 [Cefazolin]	32	–	–	–
–	–	–	C=C1CCC2C3=Nc4ccccc4C13CCN2C(=O)c1ccc(Cl)cc1 (stereo not drawn) [Compound 11b, 11-[(4-Chlorophenyl)carbonyl]-14-methylidene-8,11-diazatetracyclo[8.3.3.0^1,9.0^2.7]hexadeca-2(7),3,5,8-tetraene]	–	–	–	Fractional Inhibitory Concentration Index (FICI) [2]: 0.039; MICs [3]: 32 to 64 µg/mL; MRCs [4]: 0.25 to 2 µg/mL
–	–	8 (≈ 14.7 µM)	C=C1CN(C(=N)N)C[C@@H]2Nc3c(F)cc(Br)cc3[C@]12CCNS(=O)(=O)c1ccc(Cl)cc1 [Guan-ATI 13, (4aS,9aR)-6-bromo-4a-(2-((4-chlorophenyl)sulfonamido)ethyl)-8-fluoro-4-methylene-1,3,4,4a,9,9a-hexahydro-2H-pyrido[3,4-b]indole-2-carboximidamide]	–	2	2	saturated concentration [8]: 587 µg/mL; saturated concentration as fold of MRC in MRSA [8]: ~300 fold; plasma levels as multiple of MRC in MRSA ([9]; in vivo, 30 min): approximately 4 ×MRC; AUC ([9]; plasma, 30 mg/kg): 18200 ng·h/mL; Cmax ([9]; plasma, 30 mg/kg): 8000 ng/mL; half-life ([9]; plasma, 30 mg/kg): 2.5 h; GI50 at 24 h [10]: 40 µg/mL (≈ 73.7 µM); MRCs [11]: 2 µg/mL; Papp [12]: 2.11 ×10⁻⁶ cm/s
4	1	–	C[C@@H](O)[C@H]1C(=O)N2C(C(=O)O)=C(S[C@@H]3CN[C@H](C(=O)N(C)C)C3)[C@H](C)[C@H]12 [Meropenem]	4	–	–	–
128	8	–	COc1cccc(OC)c1C(=O)N[C@@H]1C(=O)N2[C@@H]1SC(C)(C)[C@@H]2C(=O)O [Methicillin]	16	–	–	–
–	–	> 32	C=C1CN(S(C)(=O)=O)C[C@@H]2Nc3c(F)cc(Br)cc3[C@]12CCNS(=O)(=O)c1ccc(Cl)cc1 [Ms-ATI 11b, N-(2-((4aS,9aR)-6-bromo-8-fluoro-4-methylene-2-(methylsulfonyl)-1,2,3,4,9,9a-hexahydro-4aH-pyrido[3,4-b]indol-4a-yl)ethyl)-4-chlorobenzenesulfonamide]	–	>32	>32	–
–	–	8 (≈ 16 µM)	C=C1CNC[C@@H]2Nc3c(F)cc(Br)cc3[C@]12CCNS(=O)(=O)c1ccc(Cl)cc1 [NH-ATI 12, N-(2-((4aS,9aR)-6-bromo-8-fluoro-4-methylene-1,2,3,4,9,9a-hexahydro-4aH-pyrido[3,4-b]indol-4a-yl)ethyl)-4-chlorobenzenesulfonamide]	–	4	4	antibacterial activity on its own (in words) [5]: potent antibacterial activity on its own; GI50 at 24 h [10]: 6.7 µg/mL (≈ 13.4 µM)
–	–	> 32	C=C1CN(S(=O)(=O)c2ccc([N+](=O)[O-])cc2)C[C@@H]2Nc3c(F)cc(Br)cc3[C@]12CCNS(=O)(=O)c1ccc(Cl)cc1 [Ns-ATI 11a, N-(2-((4aS,9aR)-6-bromo-8-fluoro-4-methylene-2-((4-nitrophenyl)sulfonyl)-1,2,3,4,9,9a-hexahydro-4aH-pyrido[3,4-b]indol-4a-yl)ethyl)-4-chlorobenzenesulfonamide]	–	>32	>32	–
–	–	> 32	C=C1CN(C(=O)C(F)(F)F)C[C@@H]2Nc3c(F)cc(Br)cc3[C@]12CCNS(=O)(=O)c1ccc(Cl)cc1 [TFA-ATI 11c, N-(2-((4aS,9aR)-6-bromo-8-fluoro-4-methylene-2-(2,2,2-trifluoroacetyl)-1,2,3,4,9,9a-hexahydro-4aH-pyrido[3,4-b]indol-4a-yl)ethyl)-4-chlorobenzenesulfonamide]	–	4	4	antibacterial activity on its own (in words) [5]: without observable antibacterial activity; GI50 at 24 h [10]: 19 µg/mL
–	–	–	OC[C@@H](O)[C@@H](O)[C@H](O)[C@H](O)CO [mannitol]	–	–	–	Papp [12]: 1.51 ×10⁻⁶ cm/s
–	–	–	COCCc1ccc(OCC(O)CNC(C)C)cc1 (stereo not drawn) [metoprolol]	–	–	–	Papp [12]: 53.5 ×10⁻⁶ cm/s

Structure (SMILES)	MIC [1] [µg/mL]	MIC (+11b) [1] [µg/mL]	MIC [5] [µg/mL]	Fold of potentiation [1]	MRC Cef [6] [µg/mL]	MRC Amox/clav [7] [µg/mL]	also measured
C=C1CN(CC(=O)O)C[C@@H]2Nc3c(F)cc(Br)cc3[C@]12CCNS(=O)(=O)c1ccc(Cl)cc1 [Gly-ATI 14, 2-((4aS,9aR)-6-bromo-4a-(2-((4-chlorophenyl)sulfonamido)ethyl)-8-fluoro-4-methylene-1,3,4,4a,9,9a-hexahydro-2H-pyrido[3,4-b]indol-2-yl)acetic acid]	–	–	> 32	–	>32	>32	–
Cc1onc(-c2ccccc2)c1C(=O)N[C@@H]1C(=O)N2[C@@H]1SC(C)(C)[C@@H]2C(=O)O [Oxacillin]	32	1	–	32	–	–	–
